Molecules are shown by their SMILES. A value given as a limit tells only on which side of the number the result lay.

One assay concerns diastolic blood pressure. The assay can be described thus: hypotensive activity in anesthetized rats. The format is in vivo, Male Wistar strain rats. The following applies: intravenous, minimal dose for a decrease of about 10 mm. in diastolic blood pressure; for minimal effective dose: Rattus norvegicus. On the procedure:
This procedure is a modification of the technique described by Pike et al., Prostaglandins, Nobel Symposium 2, Stockholm, June, 1966; p. 165.
Male Wistar strain rats (Royal Hart Farms) averaging approximately 250 grams in weight were fastened to rat boards in a supine position by means of canvas vests and limb ties. The femoral area was infiltrated subcutaneously with lidocaine and the iliac artery and vein were exposed and cannulated. Arterial blood pressure (systolic/diastolic) was recorded using a Statham P23 Db pressure, the animals were anethetized before use with pentobarbital, 30 mg./kg. of body weight intravenously, and also were given hexamethoxium bitartrate, 2 mg/kg. of body weight intravenously. The test compounds were prepared by ultrasonic dispersion in a saline-Tween 80 vehicle. A constant intravenous dose volume of 0.5 ml. was administered and test doses ranged from 0.1 to 10.0 mg./kg. of body weight. Increasing or decreasing doses were selected depending on the dose response obtained. In Table 2B below are set forth the minimal doses required to produce a decrease of about 10 mm. in diastolic blood pressure for typical compounds of the present invention.

In a further assay the test system is gastric acid secretion. Kind of assay: gastric acid secretion inhibition, "Shay rat" procedure. The class given is in vivo, rats (male, CFE strain). The settings on record: intraduodenal dose 100 mg./kg. of body weight; 3 hours; 20% or more = active. The protocol: The novel compounds of the present invention are also effective inhibitors of gastric acid secretion and of ulcer development in experimental animals, and thus are potentially valuable as agents for the control of gastric acid secretion and of gastric erosion and as anti-ulcer agents. Gastric acid secretion inhibitory action is usually measured by the "Shay rat" procedure ^(1,2) with some modifications as follows.
The rats (male, CFE strain) were starved for 48 hours (water was given ad libitum) to permit evacuation of stomach contents. On the morning of the experiment, under ether anesthesia, the abdominal region was shaved and a midline incision (1-1 1/2 in.) was made with a scapel. With the help of a closed curved hemostate the duodenum was picked up. […]
The test compound or the vehicle, usually […], were injected into the duodenum as close as possible to the first ligature. […] The supernatant was collected, volume measured and recorded, 2 drops of a phenolphthalein indicator (1% in 95% ethanol) were added and the solution was titrated with 0.02N NaOH (or with 0.04N NaOH when large volumes of stomach contents were encountered) to pH 8.4 (because of usual coloring of the stomach contents, phenolphthalein was only used to permit visual indication that the end point was near) and the amount of acid present was calculated. […]

The test system of assay [1] is indomethacin ulcers of the stomach. The assay can be described thus: protection against the ulcerogenic properties of indomethacin (ulcer score). The format is in vivo, rats. The following applies: 2.5 or lower = active. The protocol: The compounds of this invention provide protection against the ulcerogenic properties of indomethacin. This assay was carried out in the following manner.
Rats were starved for 48 hours (water was given ad libitum). Indomethacin (20 mg./kg. of body weight) was administered by the subutaneous route and one-half the dose of the test compound was administered by gavage at the same time. After three hours, the second half of the test compound was administered also by Gavage. Five hours after the administration of indomethacin the animals were decapitated and the stomachs removed. The stomachs were washed with distilled water, blotted on gauze, cut along the larger curvature, and the contents rinsed with distilled water. The stomachs were spread out, pinned on a cork and visualized under magnifying glass for ulcers. The criteria for scoring of ulcers was as previously reported. [Abdel-Galil et al. Brit. J. Pharmac. Chemotherapy 33:1-14 (1968)].
1 Petechial hemorrhage or pin point ulcer
3 Many ulcers, a few large
4 Many ulcers, mainly large
Control animals treated with indomethacin but not test compound consistently give scores of about 3.0-3.5. Control animals treated with neither indomethacin nor test compound give scores of about 0.5-0.8. Compounds producing a score of 2.5 or lower are considered to be active.

For assay [2], the system named is bronchospasms elicited by 5-hydroxytryptamine. Kind of assay: bronchodilator activity, Konzett procedure, 5-hydroxytryptamine. The class given is in vivo, guinea pigs. The following applies: Cavia porcellus; three logarithmic cumulative intravenous doses; spasmogen 5-hydroxytryptamine; read-out: Bronchodilator Activity (Konzett Assays) ED50, 5-hydroxytryptamine. On the procedure:
(§1) Bronchodilator activity was determined in guinea pigs against bronchospasms elicited by intravenous injections of 5-hydroxytryptamine, histamine or acetylcholine by the Konzett procedure. [See J. Lulling, P. Lievens, F. El Sayed and J. Prignot, Arzeimittel-Forschung, 18 995 (1968).]
(§2) In the table which follows bronchodilator activity for representative compounds of this invention against one or more of the three spasmogenic agents is expressed as an ED50 determined from the results obtained with three logarithemic cumulative intravenous doses.

Assay [3] deals with bronchospasms elicited by acetylcholine. Kind of assay: bronchodilator activity, Konzett procedure, acetylcholine. The class given is in vivo, guinea pigs. The settings on record: Cavia porcellus; three logarithmic cumulative intravenous doses; column head printed choline; read-out: Bronchodilator Activity (Konzett Assays) ED50, choline. The protocol:
as §1, §2

In assay [4] the test system is bronchospasms elicited by histamine. Kind of assay: bronchodilator activity, Konzett procedure, histamine. The format is in vivo, guinea pigs. The following applies: Cavia porcellus; three logarithmic cumulative intravenous doses; spasmogen histamine; read-out: Bronchodilator Activity (Konzett Assays) ED50, histamine. The protocol:
as §1, §2

Setting [5] is: total oral dose 25 mg./kg. of body weight, control score 3.2, scale 0 (normal stomach) to 4 (many ulcers, mainly large).

One may read the minimal effective dose as the smallest amount tested that counted as effective. The molecule `CCCCC[C@H](O)/C=C/[C@H]1CCC(=O)[C@@H]1CCCCOCC(=O)OCC` (relative stereo) [Ethyl 3-oxa-9-oxo-15-hydroxy-13-trans-prostenoate] showed a minimal effective dose with diastolic blood pressure of 0.2 mg/kg.
Still for that read-out and setting: the figure for `CCCCC[C@H](O)/C=C/[C@H]1CCC(=O)[C@@H]1CCCCCC(C(=O)O)c1ccccc1` (stereo partly drawn) [2-phenyl-9-oxo-15-hydroxy-13-trans-prostenoic acid] is 8 mg/kg.
Regarding `CCCCCC(O)/C=C/[C@H]1CCC(=O)[C@@H]1CCCCC(C)(C)CC(=O)O` (relative stereo) [9-oxo-15-hydroxy-3,3-dimethyl-13-trans-prostenoic acid], the “Percent Inhibition (gastric acid secretion)” value with gastric acid secretion was 51%.
Broadly, the ED50 is the midpoint of the dose-response relation. For `CCCCCC(O)/C=C\[C@H]1CCC(=O)[C@@H]1CCCCCCC(=O)O` (relative stereo) [9-oxo-15-hydroxy-13-cis-prostenoic acid, 15-hydroxy-9-oxo-13-cis-prostenoic acid], in assay [1] (total oral dose 100 mg./kg. of body weight, control score 3.0, scale 0-4), the “Score, Treated” value worked out at 1.3. The ED50 in assay [2] came to 0.000106 mg/kg.
`CCCCC[C@H](O)/C=C/[C@H]1CCCC(=O)[C@@H]1CCCCCCC(=O)O` (relative stereo) [9-oxo-10a-homo-15-hydroxy-13-trans-prostenoic acid] gave a minimal effective dose in the assay on diastolic blood pressure of 2 mg/kg.
As to `CC/C=C\CC(C)(O)/C=C/C1CCC(=O)C1C/C=C\CCCC(=O)O` (stereo not drawn) [9-oxo-15-hydroxy-15-methyl-5-cis,13-trans,17-cis-prostatrienoic acid], the “Minimal effective hypotensive dose” value in the assay on diastolic blood pressure was < 2 mg./kg. of body wt.
Still for that read-out and setting: the same measure for `CC/C=C\CC(O)/C=C/C1CCC(=O)C1C/C=C\CCCC(=O)O` (stereo not drawn) [9-oxo-15-hydroxy-5-cis,13-trans,17-cis-prostatrienoic acid]: < 2 mg./kg. of body wt.
In the assay with diastolic blood pressure, `CCCCC[C@H](O)/C=C/[C@H]1CCC(=O)[C@@H]1CCCCSCC(=O)O` (relative stereo) [9-oxo-3-thia-15-hydroxy-13-trans-prostenoic acid] displayed a minimal effective dose of 2 mg/kg.
For `CCCCC[C@@H](O)/C=C/[C@H]1CCCC(=O)[C@@H]1CCCCCCC(=O)O` (relative stereo) [9-oxo-10a-homo-15-epi-hydroxy-13-trans-prostenoic acid], in the assay with diastolic blood pressure, the minimal effective dose was found to be 2 mg/kg.
In the case of `CCCC#CC(O)CC[C@H]1CCC(=O)[C@@H]1CCCCCCC(=O)O` (stereo partly shown) [9-oxo-15-hydroxy-16-prostynoic acid], the 50% effective dose (ED50) in assay [3] came out at 0.00032 mg/kg.
In the assay on diastolic blood pressure, `CCCCC[C@@H](O)/C=C/[C@H]1CCC(=O)[C@@H]1CCCCOCC(=O)OCC` (relative stereo) [Ethyl 3-oxa-9-oxo-15-epi-hydroxy-13-trans-prostenoate] registered a minimal effective dose of 0.2 mg/kg.
Still for that read-out and setting: the figure for `CCCCC[C@H](O)/C=C/[C@H]1CCC(=O)[C@@H]1CCCCOCC(=O)O` (relative stereo) [3-oxa-9-oxo-15-hydroxy-13-trans-prostenoic acid] is less than 2 mg/kg.
Regarding `CCCCC[C@H](O)/C=C/[C@H]1CCC(=O)[C@@H]1CCCCCC(CC)C(=O)O` (stereo partly drawn) [9-oxo-15-hydroxy-2-ethyl-13-trans-prostenoic acid], the ED50 in assay [4] turned out to be 0.000145 mg/kg; in assay [2], 0.000329 mg/kg; in assay [3] it was 0.000533 mg/kg. For the same molecule, in assay [1] (total oral dose 50 mg./kg. of body weight, control score 3.0, scale 0-4), the “Score, Treated” value was 2.2. For the same molecule, the minimal effective dose in the assay on diastolic blood pressure is less than 2 mg/kg.
In the case of `CCCCC[C@@H](O)/C=C/[C@H]1CCC(=O)[C@@H]1CCCCSCC(=O)O` (relative stereo) [9-oxo-3-thia-15-epi-hydroxy-13-trans-prostenoic acid], in assay [1] (setting [5]), the “Score, Treated” value is given as 2.3. The minimal effective dose with diastolic blood pressure was 2 mg/kg.
As to `CCCCCC(O)/C=C/C1CCC(=O)C1(C)CCCCCCC(=O)O` (stereo not drawn) [9-oxo-8β-methyl-15-hydroxy-13-trans-prostenoic acid], the “Score, Treated” value in assay [1] (total oral dose 12.5 mg./kg. of body weight, control score 3.0, scale 0-4) is 2.0. For the same molecule, the “Minimal effective hypotensive dose” value in the assay with diastolic blood pressure was 2 mg./kg. of body wt.
Take `CCCCC(CC)C(O)/C=C/[C@H]1CCC(=O)[C@@H]1CCCCCCC(=O)O` (stereo partly drawn) [9-oxo-15-hydroxy-16-ethyl-13-trans-prostenoic acid]: the “Score, Treated” value in assay [1] (setting [5]) came to 1.7.
`CCCCC[C@H](O)/C=C/[C@H]1CCC(=O)[C@@H]1CCCCCC(C)C(=O)O` (stereo partly drawn) [2-methyl-9-oxo-15-hydroxy-13-trans-prostenoic acid] returned a minimal effective dose in the assay on diastolic blood pressure of 2 mg/kg.
The same measure, in the same setting: the same measure for `CCCCC[C@@H](O)/C=C/[C@H]1CCC(=O)[C@@H]1CCCCCC(C)C(=O)O` (stereo partly drawn) [2-methyl-9-oxo-15-epi-hydroxy-13-trans-prostenoic aid]: 2 mg/kg.

The record behind these values is US4007210A, “Novel 3-triphenylmethoxy-1-alkynes, 3-triphenylmethoxy-1-trans-alkenyl-dialkyl-alanes, and lithium 3-triphenyl-methoxy-1-trans-alkenyl-dialkyl-alanates” (American Cyanamid Company, priority 1975, dated 1977).
